# Source: patent EP4782453A1 (Beyang Therapeutics Co., Ltd., priority 2023, dated 2025)
# Where two headings read alike, the source gives them in different places.
# Biological target: T1, Menin-MLL (Homo sapiens, UniProt O00255)
# T1 construct: His-Menin (M1-L615 end); purchased BIORTUS BP9210
# T1 sequence (O00255 1-615 isoform O00255-1): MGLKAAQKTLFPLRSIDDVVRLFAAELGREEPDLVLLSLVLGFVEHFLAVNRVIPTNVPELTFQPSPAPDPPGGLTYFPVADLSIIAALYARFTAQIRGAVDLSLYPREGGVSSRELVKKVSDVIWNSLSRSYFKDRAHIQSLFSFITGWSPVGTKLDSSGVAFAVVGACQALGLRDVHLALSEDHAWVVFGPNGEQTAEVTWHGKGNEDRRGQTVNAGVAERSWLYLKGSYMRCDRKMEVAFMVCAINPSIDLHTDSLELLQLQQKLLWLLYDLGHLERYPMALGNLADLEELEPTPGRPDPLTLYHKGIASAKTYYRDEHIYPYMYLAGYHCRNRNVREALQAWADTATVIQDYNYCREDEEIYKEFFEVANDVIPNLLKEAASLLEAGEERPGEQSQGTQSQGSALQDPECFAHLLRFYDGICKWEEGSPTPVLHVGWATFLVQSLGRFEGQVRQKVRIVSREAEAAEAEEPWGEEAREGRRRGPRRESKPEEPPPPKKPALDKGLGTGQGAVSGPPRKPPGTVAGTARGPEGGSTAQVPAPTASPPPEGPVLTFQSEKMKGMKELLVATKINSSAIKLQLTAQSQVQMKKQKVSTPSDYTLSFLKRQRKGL
# Assay: Inhibitory activity against Menin-MLL binding (fluorescence polarization)
# Conditions: 150 nM His-Menin, 15 nM FITC-MLL, 25°C for 60 min
# Method in brief: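 His-Menin (M1-L615, 150 nM) preincubated with compound 15 min at 25 °C in HEPES pH 7.5, 50 mM NaCl, 1 mM DTT, 0.01% BSA, then 15 nM FITC-MLL4-43 peptide added for 60 min at 25 °C. Fluorescence polarization read; IC50 from 4-parameter logistic fit, duplicates.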
# [1] = fluorescence polarization, read-out: Menin-MLL IC50
# [2] = Menin-MLL IC50, fluorescence polarization
Structure (SMILES),IC50 [1] [nM],IC50 [2] [nM]
"CO[C@@H]1CN(CCC[C@H](C(C)C)N2CC(c3cc(-c4ccc(F)cc4C(=O)N4CCOC[C@H]4C)c4c(F)nc(C)n4c3)C2)C[C@H]1O [Example 291-1, (3R,4R)-1-[(4R)-4-[3-(1-fluoro-8-{4-fluoro-2-[(3R)-3-methylmorpholin-4-carbonyl]phenyl}-3-methylimidazo[1,5-a]pyridin-6-yl)azacyclobutan-1-yl]-5-methylhexyl]-4-methoxypyrrolidin-3-ol]",6,
"CCN(C(=O)c1cc(F)ccc1-c1cc(CC2CN([C@@H](CCCN(C)CCOC)C(C)C)C2)n2c(C)cncc12)C(C)C [Example 296-2, N-ethyl-5-fluoro-2-[6-({1-[(3S)-6-[(2-methoxyethyl)(methyl)amino]-2-methylhexan-3-yl]azacyclobutan-3-yl}methyl)-4-methylpyrrolo[1,2-a]pyrazin-8-yl]-N-(isopropyl)benzamide]",3,
"Cc1nc(F)c2c(-c3ccc(F)cc3C(=O)N3CCOC[C@H]3C)cc(C3CN([C@H](CO[C@@H]4CCN(C)C4)C(C)C)C3)cn12 [Example 298, (3R)-4-[5-fluoro-2-(1-fluoro-3-methyl-6-{1-[(2S)-3-methyl-1-{[(3R)-1-methylpyrrolidin-3-yl]oxy}butan-2-yl]azacyclobutan-3-yl}imidazo[1,5-a]pyridin-8yl)benzoyl]-3-methylmorpholine]",14.5,
Cc1nc(F)c2c(-c3ccc(F)cc3C(=O)N3CCOC[C@H]3C)cc(C3CN([C@@H](C)C4CCN(C(=O)C5CC5)CC4)C3)cn12 [Example 299],15,
Cc1nc(F)c2c(-c3ccc(F)cc3C(=O)N3CCOC[C@H]3C)cc(C3CN([C@@H](C)C4CCN(C(=O)C(F)F)CC4)C3)cn12 [Example 300],24,
Cc1nc(F)c2c(-c3ccc(F)cc3C(=O)N3CCOCC3C)cc(C3CN(C(C)C4CCN(C(=O)C5CC5F)CC4)C3)cn12 (stereo not shown) [Example 301],,9
Cc1nc(F)c2c(-c3ccc(F)cc3C(=O)N3CCOC[C@H]3C)cc(C3CN([C@@H](C)C4CCN(C(=O)C(C)(F)F)CC4)C3)cn12 [Example 302],22,
Cc1nc(F)c2c(-c3ccc(F)cc3C(=O)N3CCOC[C@H]3C)cc(C3CN([C@@H](C)C4CCN(C(=O)[C@@H]5C[C@@H]5F)CC4)C3)cn12 [Example 303],,5
Cc1nc(F)c2c(-c3ccc(F)cc3C(=O)N3CCOC[C@H]3C)cc(C3CN([C@@H](C)C4CCN(C(=O)CC(F)F)CC4)C3)cn12 [Example 304],8,
"Cc1nc(F)c2c(-c3ccc(F)cc3C(=O)N3CCOC[C@H]3C)cc(C3CN(C(CC[C@H]4CN(C)CCO4)C(C)C)C3)cn12 (stereo partly drawn) [Example 308, (3R)-4-{5-fluoro-2-[1-fluoro-3-methyl-6-(1-{4-methyl-1-[(2S)-4-methylmorpholin-2-yl]pentan-3-yl}azacyclobutan-3-yl)imidazo[1,5-a]pyridin-8yl]benzoyl}-3-methylmorpholine]",49,
"Cc1nc(F)c2c(-c3ccc(F)cc3C(=O)N3CCOC[C@H]3C)cc(C3CN(C(CO)C4CCOCC4)C3)cn12 (stereo partly drawn) [Example 309, 2-[3-(1-fluoro-8-{4-fluoro-2-[(3R)-3-methylmorpholin-4-carbonyl]phenyl}-3-methylimidazo[1,5-a]pyridin-6-yl)azacyclobutan-1-yl]-2-(oxacyclohexan-4-yl)ethan-1-ol]",60,
CCN(C(=O)c1cc(F)ccc1-c1cc(C2CN([C@@H](CCCN3CCN(C(C)=O)CC3)C(C)C)C2)cn2c(C)nc(F)c12)C(C)C [Example 313],48,
CCN(C(=O)c1cc(F)ccc1-c1cc(C2CN(C(=O)[C@@H](NC)C(C)C)C2)cn2c(C)nc(F)c12)C(C)C [Example 315],,39
CC[C@H](C)[C@H](NC)C(=O)N1CC(c2cc(-c3ccc(F)cc3C(=O)N(CC)C(C)C)c3c(F)nc(C)n3c2)C1 [Example 316],,99
CCN(C(=O)c1cc(F)ccc1-c1cc(C2CN(C(=O)[C@@H](NC)C3CCCC3)C2)cn2c(C)nc(F)c12)C(C)C [Example 317],,92
CC[C@@H](C)[C@H](NC)C(=O)N1CC(c2cc(-c3ccc(F)cc3C(=O)N(CC)C(C)C)c3c(F)nc(C)n3c2)C1 [Example 318],,39
"CCC(=O)N1CCC(C(C)N2CC(c3cc(-c4ccc(F)cc4C(=O)N4CCOC[C@H]4C)c4cnc(C)n4c3)C2)CC1 (stereo partly drawn) [Example 319, 1-(4-{1-[3-(8-{4-fluoro-2-[(3R)-3-methylmorpholin-4-carbonyl]phenyl}-3-methylimidazo[1,5-a]pyridin-6-yl)azacyclobutan-1-yl]ethyl}piperidin-1-yl)propan-1-one]",19,
CCCC(=O)N1CCC(C(C)N2CC(c3cc(-c4ccc(F)cc4C(=O)N4CCOC[C@H]4C)c4cnc(C)n4c3)C2)CC1 (stereo partly shown) [Example 320],12,

# Further lines, with some results ahead:
IC50 [1] [nM],Structure (SMILES),IC50 [2] [nM]
13.5,"Cc1nc(F)c2c(-c3ccc(F)cc3C(=O)N3CCOC[C@H]3C)cc(C3CN([C@@H](CO[C@@H]4CCCN(C)C4)C(C)C)C3)cn12 [Example 297-2, (3R)-4-[5-fluoro-2-(1-fluoro-3-methyl-6-{1-[(2R)-3-methyl-1-{[(3R)-1-methylpiperidin-3-yl]oxy}butan-2-yl]azacyclobutan-3-yl}imidazo[1,5-a]pyridin-8yl)benzoyl]-3-methylmorpholine]",
14.5,"CCN(C(=O)c1cc(F)ccc1-c1cc(C2CN([C@@H](CCCN(C)CCOC)C(C)C)C2)cn2c(C)nc(F)c12)C(C)C [Example 307-1, N-ethyl-5-fluoro-2-(1-fluoro-6-{1-[(3S)-6-[(2-methoxyethyl)(methyl)amino]-2-methylhexan-3-yl]azacyclobutan-3-yl}-3-methylimidazo[1,5-a]pyridin-8-yl)-N-(isopropyl)benzamide]",
31,"CCN(C(=O)c1cc(F)ccc1-c1cc(C2CN([C@@H](CCCN3CCN(C)CC3)C(C)C)C2)cn2c(C)ncc12)C(C)C [Example 310-1, N-ethyl-5-fluoro-2-(3-methyl-6-{1-[(3S)-2-methyl-6-(4-methylpiperazin-1-yl)hexan-3-yl]azacyclobutan-3-yl}imidazo[1,5-a]pyridin-8-yl)-N-(isopropyl)benzamide]",
42,"CCN(C(=O)c1cc(F)ccc1-c1cc(C2CN([C@@H](CCCN3CCN(C(C)=O)CC3)C(C)C)C2)cn2c(C)ncc12)C(C)C [Example 311-1, 2-(6-{1-[(3S)-6-(4-acetylpiperazin-1-yl)-2-methylhexan-3-yl]azacyclobutan-3-yl}-3-methylimidazo[1,5-a]pyridin-8-yl)-N-ethyl-5-fluoro-N-(isopropyl)benzamide]",
32,CCN(C(=O)c1cc(F)ccc1-c1cc(C2CN([C@@H](CCCN3CCN(C)CC3)C(C)C)C2)cn2c(C)nc(F)c12)C(C)C [Example 312-1],
39,"CCC(=O)N1CCC([C@H](C)N2CC(c3cc(-c4ccc(F)cc4C(=O)N4CCOC[C@H]4C)c4cnc(C)n4c3)C2)CC1 [Example 319-1, 1-{4-[(1S)-1-[3-(8-{4-fluoro-2-[(3R)-3-methylmorpholin-4-carbonyl]phenyl}-3-methylimidazo[1,5-a]pyridin-6-yl)azacyclobutan-1-yl]ethyl]piperidin-1-yl}propan-1-one]",
328,"CCC(=O)N1CCC([C@@H](C)N2CC(c3cc(-c4ccc(F)cc4C(=O)N4CCOC[C@H]4C)c4cnc(C)n4c3)C2)CC1 [Example 319-2, 1-{4-[(1R)-1-[3-(8-{4-fluoro-2-[(3R)-3-methylmorpholin-4-carbonyl]phenyl}-3-methylimidazo[1,5-a]pyridin-6-yl)azacyclobutan-1-yl]ethyl]piperidin-1-yl}propan-1-one]",
